Results: article PMC7613620, “Reaction hijacking of tyrosine tRNA synthetase as a whole-of-life-cycle antimalarial strategy” (Science (New York, N.Y.), 2022)

Tests used:
Caco2 permeability = format: in vitro ADME; settings: human, Caco-2
[1] = test system: P. falciparum Dd2 PfYRSS234C mutant lines; assay: 72-h sensitivity of CRISPR-edited PfYRSS234C clones; format: cell-based, Plasmodium falciparum; settings: for IC50: Plasmodium falciparum, DD2, 72 h, 72-h exposure
Protocol: 700 the drug plate. Lowest drug treatment and a lethal dose of chloroquine (200 nM) served as reference
701 controls. Growth inhibition was analysed after 72 h using the Renilla-Glo(R) Luciferase Assay System (ref
702 no E2750 Promega) and the GloMax® Discover Multimode Microplate Reader (Promega), and IC50 values
703 were obtained from corrected dose-response curves using GraphPad Prism (version 8; GraphPad Software).
705 Generation of PfYRSS234C transfectants
706 CRISPR/Cas9 was used to generate parasites encoding the S234C mutation in exon 2 of PfYRS, as shown
707 in Suppl Figure 6. Two guide RNAs (gRNA1: […] and gRNA2:
708 […]) were selected using Benchling (benchling.com), and cloned into the
709 pDC2-coCas9-gRNA plasmid essentially as described previously (58). A donor template of 645 bp,
710 encompassing the majority of the 708 bp exon 2, was synthesized (ThermoFisher) and cloned into the
711 AatII/EcoRI sites of both the pDC2-coCas9-gRNA1 and pDC2-coCas9-gRNA2 plasmids. In addition to
712 the TCC>TGC (S234C) mutation, additional silent shield mutations were introduced to prevent gRNA-
713 Cas9 complex binding, as shown in Suppl Figure 6. Ring-stage P. falciparum parasites (Dd2 strain) at 10%
714 parasitemia (150 µL of packed cells) were transfected with 50 µg of plasmid DNA using a BioRad Gene
715 Pulser II (310 V, 950 µF), and selected with 5 nM WR99210 (Jacobus Pharmaceuticals) for 8 days, after
716 which culture was continued without drug pressure until transfectants were obtained. Clones of the
717 PfYRSS234C mutant parasites were isolated by limiting dilution and verified by Sanger sequencing. […]
729 Cam 3.II_Rev (25) trophozoite-infected RBCs (25-30 h p.i.) were incubated with inhibitor for 3 h at 10%
730 hematocrit and 5% parasitemia. The RBC pellet was washed 3 x in PBS + cOmplete. Cells were centrifuged
731 at 380 x g for 5 min and the pelleted cells lysed by resuspension in PBS + 0.05% saponin for 5 min on ice.

PfYRS = PfYRS (Plasmodium falciparum, UniProt Q8IAR7); assay: Tyrosine acylation of cognate tRNATyr by PfYRS; format: biochemical
Sequence of PfYRS (Q8IAR7 entry or part of it): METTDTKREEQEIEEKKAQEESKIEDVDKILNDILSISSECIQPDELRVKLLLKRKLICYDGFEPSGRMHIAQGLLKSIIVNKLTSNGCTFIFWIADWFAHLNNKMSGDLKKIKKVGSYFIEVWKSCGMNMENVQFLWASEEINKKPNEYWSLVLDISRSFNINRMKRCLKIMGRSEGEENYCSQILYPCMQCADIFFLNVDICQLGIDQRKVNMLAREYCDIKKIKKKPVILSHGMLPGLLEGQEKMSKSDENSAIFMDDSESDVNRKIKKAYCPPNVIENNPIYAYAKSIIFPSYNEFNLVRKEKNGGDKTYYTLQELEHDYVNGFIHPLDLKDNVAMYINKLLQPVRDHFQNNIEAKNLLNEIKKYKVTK

[2] = test system: P. falciparum female gametes; assay: Dual gamete formation assay (female); format: cell-based; settings: Plasmodium falciparum
Protocol: 604 Activity against transmissible stages of P. falciparum
605 Activity against male gametes was assessed using the dual gamete formation assay (PfDGFA)(32).
606 Compounds were incubated with mature stage V gametocytes ([…], kind gift from Professor Chris Janse
607 at Leiden University Medical Center (LUMC), the Netherlands) for 48 hours in 384 well plates before
608 gamete formation was triggered by a drop in temperature and addition of xanthurenic acid. Male gamete
609 exflagellation was recorded and quantified by automated microscopy. The ability of female gametes to
611 Multiple data sets using different gametocyte cultures were collected on each of two separate days.
613 Activity against exoerythrocytic stages
614 Primary human hepatocytes (H1500.H15B+ Lot No. HC10-10 Cryopreserved human hepatocytes)
615 were cultured for 2 days and then overlaid with P. falciparum NF54 sporozoites and compounds.
616 Supernatant was refreshed daily with fresh compounds.

## Nc1ncnc2c1c(OC(F)F)nn2[C@@H]1O[C@H](COS(N)(=O)=O)[C@@H](O)[C@H]1O [ML901]
Caco2 permeability; A to B
  Papp A→B: 0.7 ×10⁻⁶ cm/s
Caco2 permeability; B to A
  Papp B→A: 0.82 ×10⁻⁶ cm/s
[1]; Dd2 parent transfectants harboring PfYRSS234C
  decreased sensitivity of PfYRSS234C transfectants: 10 fold
[1]; Mutant E12 (PfYRSS234C)
  IC50: 22 ± 1 nM
[1]; Mutant F5 (PfYRSS234C)
  IC50: 22 ± 3 nM
[1]; Mutant G12 (PfYRSS234C)
  IC50: 20 ± 1 nM
PfYRS
  IC50: 53000 nM
[2]; 48 h incubation with stage V gametocytes
  IC50: 4700 ± 300 nM
[2]; at 25 µM
  inhibition at 25 µM: 81%
